Measurements as given in patent US5486541A (Teva Pharmaceutical Industries, Ltd., priority 1991, dated 1996).

Key:
MAO-A [1] = target: T1, MAO-A (Rattus norvegicus, UniProt P21396); test: biochemical; conditions: rat brain homogenate; 20 min preincubation at 37° C.; 5-HT 1 mM; read-out: IC50 for Inhibition of MAO-A in Brain Homogenates
T1 sequence (P21396 1-526): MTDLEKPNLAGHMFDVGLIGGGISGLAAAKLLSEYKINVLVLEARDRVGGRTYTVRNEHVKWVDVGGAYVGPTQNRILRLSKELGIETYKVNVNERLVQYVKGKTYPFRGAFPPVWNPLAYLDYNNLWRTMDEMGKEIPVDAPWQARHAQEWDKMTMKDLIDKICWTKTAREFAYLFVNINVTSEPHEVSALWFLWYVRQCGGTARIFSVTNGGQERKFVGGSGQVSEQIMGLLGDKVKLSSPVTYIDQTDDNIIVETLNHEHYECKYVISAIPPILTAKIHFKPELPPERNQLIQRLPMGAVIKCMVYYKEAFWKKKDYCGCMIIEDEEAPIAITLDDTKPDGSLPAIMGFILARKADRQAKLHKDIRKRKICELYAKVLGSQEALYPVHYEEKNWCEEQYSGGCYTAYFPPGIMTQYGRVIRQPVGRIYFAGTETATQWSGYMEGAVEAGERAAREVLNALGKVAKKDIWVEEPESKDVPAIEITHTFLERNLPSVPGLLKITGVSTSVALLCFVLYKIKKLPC

MAO-B [2] = test: Inhibition of MAO Activity Ex-vivo: Acute Treatment, brain, MAO-B; type: in vivo, rat (male Sprague-Dawley derived); conditions: for ED-50 BRAIN MAO-B: rat, ip or po, 2 hours after dosing; for BRAIN MAO-A/MAO-B (measure of selectivity): ratio of ED-50 values, rat brain, ex vivo
MAO-A [3] = test: Inhibition of MAO Activity Ex-vivo: Acute Treatment, brain, MAO-A; type: in vivo, rat (male Sprague-Dawley derived); conditions: rat, ip or po, 2 hours after dosing
MAO-B [4] = target: T2, MAO-B (Rattus norvegicus, UniProt P19643); test: biochemical; type: biochemical; conditions: rat brain homogenate; for IC50: 20 min preincubation at 37° C., PEA 20 μM, read-out: IC50 for Inhibition of MAO-B in Brain Homogenates; for Selectivity MAO-A/MAO-B (in vitro IC50): ratio IC50 MAO-A / IC50 MAO-B
T2 sequence (P19643 1-520): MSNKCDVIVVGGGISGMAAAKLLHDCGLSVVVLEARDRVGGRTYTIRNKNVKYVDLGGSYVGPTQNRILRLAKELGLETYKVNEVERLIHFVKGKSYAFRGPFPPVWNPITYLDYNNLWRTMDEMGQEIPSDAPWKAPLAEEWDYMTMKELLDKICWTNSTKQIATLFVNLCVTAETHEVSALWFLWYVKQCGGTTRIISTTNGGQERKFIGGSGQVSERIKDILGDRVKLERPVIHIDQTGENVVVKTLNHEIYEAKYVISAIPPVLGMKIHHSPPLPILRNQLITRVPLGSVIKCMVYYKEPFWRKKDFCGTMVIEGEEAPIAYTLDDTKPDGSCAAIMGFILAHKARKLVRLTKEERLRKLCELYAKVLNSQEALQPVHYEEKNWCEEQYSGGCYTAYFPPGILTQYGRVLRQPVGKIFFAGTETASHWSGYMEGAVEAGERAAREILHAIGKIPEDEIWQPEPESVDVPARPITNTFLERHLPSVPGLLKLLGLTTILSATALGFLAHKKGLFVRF

[5] = system: blood pressure response to tyramine; test: Tyramine Potentiation in Vivo (blood pressure response to tyramine); set-up: species or system rat; conditions: tyramine alone, oral, 5, 10 and 20 mg/kg
Protocol: On the previous day a tail artery cannulation was performed to enable direct blood pressure measurements. On the experimental day the cannulae were connected to pressure transducers. The animals were unrestrained and were kept in a glass sided open top tank during the pressure measurements. […] The desired compound was administered 30 minutes after the last dose of tyramine. Tyramine was administered again, in increasing doses, as described above, one hour after the desired compound was administered. […] The tyramine potentiating effect was calculated as a ratio between the areas under the curve of blood pressure measured with tyramine alone (20 mg/kg) and that measured after administration of the desired compounds and tyramine.

MAO-B [6] = test: Inhibition of MAO Activity Ex-vivo: Acute Treatment, liver, MAO-B; type: in vivo, rat (male Sprague-Dawley derived); conditions: for ED-50 LIVER MAO-B: rat, ip or po, 2 hours after dosing; for LIVER MAO-A/MAO-B (measure of selectivity): ratio of ED-50 values, rat liver, ex vivo
Protocol: (§1) These experiments were performed essentially according to the protocol of K. F. Tipton and M. B. H. Youdim in CIBA Symposium No. 39, Editors: G. E. W. Wolstenholme and J. Knight, Elsevier, Amsterdam, 1976, pp. 393-403. The MAO enzyme source was a homogenate of rat brain in 0.3M sucrose which was centrifuged at 600 g for 15 minutes. The supernatant was diluted appropriately in 0.05M phosphate buffer and preincubated with serial dilutions of compounds of interest which are listed below for 20 minutes at 37° C. ^14 C-labeled substrates (2-phenylethylamine, hereinafter PEA; 5-hydroxytryptamine, hereinafter 5-HT) were then added and the incubation continued for a further 20 minutes (PEA) or 30-45 minutes (5-HT). Substrate concentrations used were 20 μM (PEA) or 1 mM (5-HT). In the case of PEA the enzyme concentration was chosen so that not more than 10% of the substrate was metabolized during the course of the reaction. The reaction was then stopped by the addition of tranylcypromine (to final concentration of 1 mM) and the incubate filtered over a small column of Amberlite CG-50; buffered to pH 6.3. The column was washed with 1.5 ml water, the eluates pooled and the radioactive content determined by liquid scintillation spectrometry. Since the amine substrates are totally retained on the column, radioactivity in the eluate indicates the production of neutral and acidic metabolites formed as a result of MAO activity. Activity of MAO in the sample was expressed as a percentage of control activity in the absence of inhibitors after subtraction of appropriate blank values. The activity determined using PEA as a substrate is referred to as MAO B activity, and that determined using 5-HT as a substrate is referred to as MAO A activity.
(§2) Rats (male Sprague-Dawley derived) weighing 250±20 g were treated with the desired compound by intraperitoneal injection (ip) or oral gavage (po) and decapitated 2 hours later. Groups of three rats were used for each dose level of the compound and MAO activity was determined in the brain and liver using the general technique described above. The amount of protein in each incubation was determined using the Folin-Lowry method, and enzyme activity was calculated as nmol substrate metabolized per hour incubation for each mg protein. Activity of MAO in tissues from animals treated with inhibitors was expressed as a percentage of the enzyme activity in a group of control animals which were administered the vehicle alone (water in the case of oral gavage, or 0.9% saline in the case of intraperitoneal injection) and killed as above.

MAO-A [7] = test: Inhibition of MAO Activity Ex-vivo: Acute Treatment, liver, MAO-A; type: in vivo, rat (male Sprague-Dawley derived); conditions: rat, ip or po, 2 hours after dosing
Protocol: as §1, §2

In the case of C#CCNC1CCc2ccc(Cl)cc21.Cl (stereo not drawn) [Example 6-Cl, 6-Chloro-N-propargyl-1-aminoindan hydrochloride], the IC50 (MAO-A [1]) is reported as 6900 nM, the “ED-50 BRAIN MAO-B” value (MAO-B [2]) is reported as 1.7 mg/kg and the “BRAIN MAO-A/MAO-B (measure of selectivity)” value (MAO-B [2]) is reported as 5.8. For the same molecule, the “ED-50 BRAIN MAO-A” value (MAO-A [3]) was 10 mg/kg, the IC50 (MAO-B [4]) was 7.7 nM and the “Selectivity MAO-A/MAO-B (in vitro IC50)” value (MAO-B [4]) was 896.

NCCc1ccc(O)cc1 [Tyramine, reference compound] was tested, and the “effect of tyramine alone on blood pressure (in words)” value [5] was “caused increase of blood pressure”.

For C#CCNC1CCc2c(F)cc(F)cc21 (single isomer, unassigned; (+)) [(+)-4,6-Difluoro], the IC50 (MAO-A [1]) was 800 nM, the “ED-50 BRAIN MAO-B” value (MAO-B [2]) was 3.7 mg/kg and the “BRAIN MAO-A/MAO-B (measure of selectivity)” value (MAO-B [2]) was 1. The “ED-50 BRAIN MAO-A” value (MAO-A [3]) was 2.9 mg/kg, the IC50 (MAO-B [4]) was 500 nM and the “Selectivity MAO-A/MAO-B (in vitro IC50)” value (MAO-B [4]) was 2.

For C#CCNC1CCc2ccccc21 (stereo not drawn) [H, N-propargyl-1-aminoindan, reference compound], the “ED-50 LIVER MAO-B” value (MAO-B [6]) was 0.06 mg/kg, the “ED-50 LIVER MAO-A” value (MAO-A [7]) was 5 mg/kg and the “ED-50 BRAIN MAO-B” value (MAO-B [2]) was 0.07 mg/kg. The “ED-50 BRAIN MAO-A” value (MAO-A [3]) was 1.2 mg/kg.

C#CCNC1CCc2c(F)cccc21.Cl (stereo not drawn) [Example 4-F, 4-Fluoro-N-propargyl-1-aminoindan hydrochloride] was tested, and the IC50 (MAO-A [1]) was 500 nM, the “ED-50 LIVER MAO-B” value (MAO-B [6]) was 0.13 mg/kg and the “LIVER MAO-A/MAO-B (measure of selectivity)” value (MAO-B [6]) was 18.5. For the same molecule, the “ED-50 LIVER MAO-A” value (MAO-A [7]) was 2.4 mg/kg, the “ED-50 BRAIN MAO-B” value (MAO-B [2]) was 0.22 mg/kg and the “BRAIN MAO-A/MAO-B (measure of selectivity)” value (MAO-B [2]) was 6. The “ED-50 BRAIN MAO-A” value (MAO-A [3]) was 1.4 mg/kg, the IC50 (MAO-B [4]) was 5.8 nM and the “Selectivity MAO-A/MAO-B (in vitro IC50)” value (MAO-B [4]) was 86.

In the case of C#CCNC1CCc2ccc(F)cc21 (stereo not drawn) [Example 6-F, 6-Fluoro-1-propargylaminoindan], the IC50 (MAO-A [1]) is reported as 4000 nM, the “ED-50 BRAIN MAO-B” value (MAO-B [2]) is reported as 0.13 mg/kg and the “BRAIN MAO-A/MAO-B (measure of selectivity)” value (MAO-B [2]) is reported as 170. For the same molecule, the “ED-50 BRAIN MAO-A” value (MAO-A [3]) was 22 mg/kg, the IC50 (MAO-B [4]) was 6.2 nM and the “Selectivity MAO-A/MAO-B (in vitro IC50)” value (MAO-B [4]) was 645.

For C#CCNC1CCc2ccc(F)cc21.Cl (single isomer, unassigned; (-)) [(-)-6-F, (-)-6-Fluoro-N-propargyl-1-aminoindan hydrochloride], the IC50 (MAO-A [1]) was 40000 nM, the “ED-50 LIVER MAO-B” value (MAO-B [6]; hydrochloride, 120 min) was under 0.5 mg/kg and the “ED-50 BRAIN MAO-B” value (MAO-B [2]; hydrochloride, 120 min) was 0.45 mg/kg. The “BRAIN MAO-A/MAO-B (measure of selectivity)” value (MAO-B [2]; hydrochloride) was 51, the “ED-50 BRAIN MAO-A” value (MAO-A [3]; hydrochloride, 120 min) was 23 mg/kg and the IC50 (MAO-B [4]) was 12000 nM. The “Selectivity MAO-A/MAO-B (in vitro IC50)” value (MAO-B [4]; hydrochloride) was 3.

With C#CCNC1CCc2cc(F)ccc21.Cl (stereo not drawn) [Example 5-F, 5-Fluoro-N-propargyl-1-aminoindan hydrochloride] the IC50 (MAO-A [1]) was 700 nM, the “ED-50 LIVER MAO-B” value (MAO-B [6]) was 0.06 mg/kg and the “LIVER MAO-A/MAO-B (measure of selectivity)” value (MAO-B [6]) was 36.7. For the same molecule, the “ED-50 LIVER MAO-A” value (MAO-A [7]) was 2.2 mg/kg, the “ED-50 BRAIN MAO-B” value (MAO-B [2]) was 0.4 mg/kg and the “BRAIN MAO-A/MAO-B (measure of selectivity)” value (MAO-B [2]) was 6. The “ED-50 BRAIN MAO-A” value (MAO-A [3]) was 2.3 mg/kg, the IC50 (MAO-B [4]) was 6 nM and the “Selectivity MAO-A/MAO-B (in vitro IC50)” value (MAO-B [4]) was 116.
